“And” between values parts separate entries of the source, which are not always exact repeats. Equal entries are not always repeated. Square brackets hold non-standard residues; d marks the D form. Peptide text beside a SMILES is read from it. Hyp = O=C(O)[C@@H]1C[C@@H](O)CN1
Biological target: T1, recombinant human cGAS enzyme (hcGAS-ΔN, residues 147–522) (Homo sapiens, UniProt Q8N884)
T1 construct: N-terminally truncated human cGAS (hcGAS-ΔN, residues 147–522); 6xHis-SUMO (N, cleaved yes); made in house; host or cells: Escherichia coli BL21 (DE3)
Assay: RNA-based fluorescent biosensor assay of cGAS activity (2',3'-cGAMP formation), in vitro screening
Assay type: biochemical
Details: for Remaining activity (%), Fig. 1a source data / remaining activity at 20 µM: 20 μM, replicate values; for remaining activity at 20 µM: read-out: Remaining activity (%), Fig. 1a source data; for inhibition at 20 µM: peptides screened at 20 μM, Supplementary Table 1 / Fig. S5b, read-out: Inhibition %
Excerpt: To screen direct cGAS inhibitors targeting protein-DNA interface from our developed focused library of macrocyclic peptides, we applied an RNA-based fluorescent biosensor for 2’,3’-cGAMP to detect cGAS activity in vitro (Supplementary Fig. 1a)[49]. The formation of 2’,3’-cGAMP from ATP and GTP was catalyzed by recombinant human cGAS enzyme (hcGAS-ΔN, residues 147–522, Supplementary Fig. 1b) in the presence of ISD (interferon stimulatory DNA, a 45-bp dsDNA), which was readily quantified by the RNA-based fluorescent biosensor and was further confirmed by ion exchange chromatography (Supplementary Fig. 1c). […] Subsequently, a total of 90 macrocyclic peptides were screened at a concentration of 20 μM (Fig. 1a and Supplementary Fig. 1e), and 4 hits (XQ2, XQ8, XQ19, and XQ46) were obtained for further testing at a cut-off of 40% inhibition (Supplementary Table 1). To evaluate the inhibitory effect of the hits against cGAS in cells, we employed real-time quantitative PCR (qPCR) to examine mRNA levels of IFNΒ1 in THP1 cells. The reported cGAS inhibitor RU.521 was used as the positive control, and the non-active peptide XQ28 in the screening assay was used as the negative control. […] The inhibition of cGAS by these hits was further confirmed in the reporter cell line THP1-Lucia ISG (Invivogen) that expresses secreted luciferase induced by an IRF3-inducible ISG54 promoter (Fig. 1c). The discrepancy between the inhibitory effect of the hits in protein and cellular assays may be attributed to their different cellular permeability.
The high-throughput screening (HTS) experiments of cGAS activity are based on the method previously described. To initiate the enzyme reaction, ISD was added to the reaction solution (40 mM Tris-HCl, pH 7.5, 100 mM NaCl, 10 mM MgCl2) containing hcGAS-ΔN, ATP (Sangon Biotech, Cat# A600311) and GTP (Sangon Biotech, Cat# A620332) in a total volume of 20 ul with the final concentration of 0.5 μM, 1.5 μM, 1 mM, 1 mM, respectively, and incubated for 2 h at 37 °C. For HTS experiments, compounds were added to the same reaction conditions as described above with the final concentration of 20 μM. Z’ factors were calculated from three replicates in the 384-well plate.

T1 sequence (Q8N884 147-522, stated change not applied): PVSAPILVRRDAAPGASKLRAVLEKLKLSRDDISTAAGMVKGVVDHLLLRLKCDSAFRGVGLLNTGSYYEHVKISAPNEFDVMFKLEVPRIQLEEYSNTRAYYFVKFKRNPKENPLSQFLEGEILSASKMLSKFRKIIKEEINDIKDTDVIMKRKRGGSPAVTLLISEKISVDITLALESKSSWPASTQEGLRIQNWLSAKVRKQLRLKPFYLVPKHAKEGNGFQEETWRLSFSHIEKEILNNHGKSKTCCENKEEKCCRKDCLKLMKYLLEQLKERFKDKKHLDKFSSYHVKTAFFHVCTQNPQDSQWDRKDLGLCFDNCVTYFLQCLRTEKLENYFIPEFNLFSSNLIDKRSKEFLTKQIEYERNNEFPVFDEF

| SMILES | Remaining activity (%), Fig. 1a source data | remaining activity at 20 µM | inhibition at 20 µM |
| --- | --- | --- | --- |
| CC(C)C[C@@H]1NC(=O)[C@H](C)NC(=O)[C@H](C(C)C)NC(=O)[C@@H]2CCCN2C(=O)[C@@H](Cc2ccccc2)NC(=O)[C@H](CC(C)C)NC(=O)[C@H](CCCNC(=N)N)NC(=O)[C@H](C(C)C)NC(=O)[C@@H]2CCCN2C(=O)[C@@H](Cc2ccccc2)NC1=O [XQ4, Cyclo (LfPVALfPVR)] (cyclo(AL[dF]PVRL[dF]PV)) | 84.7804% and 84.3938% | 84.5% | 16% |
| CC(C)C[C@@H]1NC(=O)[C@H](CCCNC(=N)N)NC(=O)[C@H](C(C)C)NC(=O)[C@@H]2C[C@@H](O)CN2C(=O)[C@@H](Cc2ccccc2)NC(=O)[C@H](CC(C)C)NC(=O)[C@H](CCCNC(=N)N)NC(=O)[C@H](C(C)C)NC(=O)[C@@H]2CCCN2C(=O)[C@@H](Cc2ccccc2)NC1=O [XQ6, Cyclo (LfPVRLf(Hyp)VR)] (cyclo([Hyp]VRL[dF]PVRL[dF])) | 68.1038% and 66.5986% | 66.6% | 32% |
| CC(C)C[C@@H]1NC(=O)[C@H](CCCNC(=N)N)NC(=O)[C@H](C)NC(=O)[C@@H]2CCCN2C(=O)[C@@H](Cc2ccccc2)NC(=O)[C@H](CC(C)C)NC(=O)[C@H](CCCNC(=N)N)NC(=O)[C@H](C)NC(=O)[C@@H]2CCCN2C(=O)[C@@H](Cc2ccccc2)NC1=O [XQ9, Cyclo (LfPARLfPAR)] (cyclo(ARL[dF]PARL[dF]P)) | 109.335% and 107.433% | 108% | 0% |
| CC(C)C[C@@H]1NC(=O)[C@H](CCCNC(=N)N)NC(=O)[C@H](C(C)C)NC(=O)[C@@H]2CCCN2C(=O)[C@@H](Cc2c[nH]c3ccccc23)NC(=O)[C@H](CC(C)C)NC(=O)[C@H](CCCNC(=N)N)NC(=O)[C@H](C(C)C)NC(=O)[C@@H]2CCCN2C(=O)[C@@H](Cc2c[nH]c3ccccc23)NC1=O [XQ11, Cyclo (LwPVRLwPVR)] (cyclo(L[dW]PVRL[dW]PVR)) | 86.4291% and 86.3946% | 85.2% | 14% |
| CC(C)C[C@@H]1NC(=O)[C@H](CCCNC(=N)N)NC(=O)[C@H](C(C)C)NC(=O)[C@@H]2C[C@@H](O)CN2C(=O)[C@@H](Cc2ccccc2)NC(=O)[C@H](CC(C)C)NC(=O)[C@H](CCCNC(=N)N)NC(=O)[C@H](C(C)C)NC(=O)[C@@H]2C[C@@H](O)CN2C(=O)[C@@H](Cc2ccccc2)NC1=O [XQ12, Cyclo (Lf(Hyp)VRLf(Hyp)VR)] (cyclo([Hyp]VRL[dF][Hyp]VRL[dF])) | 93.4229% and 93.3308% | 93.7% | 7% |
| CC(C)C[C@@H]1NC(=O)[C@H](CCCNC(=N)N)NC(=O)[C@H](C)NC(=O)[C@@H]2CCCN2C(=O)[C@@H](Cc2ccccc2)NC(=O)[C@H](C)NC(=O)[C@H](CCCNC(=N)N)NC(=O)[C@H](C)NC(=O)[C@@H]2CCCN2C(=O)[C@@H](Cc2ccccc2)NC1=O [XQ16, Cyclo (AfPARLfPAR)] (cyclo(ARA[dF]PARL[dF]P)) | 99.1383% and 98.554% | 98.3% | 1% |
| CC(C)[C@@H]1NC(=O)[C@@H]2CCCN2C(=O)[C@@H](Cc2ccccc2)NC(=O)[C@H](C)NC(=O)[C@H](CCCNC(=N)N)NC(=O)[C@H](C)NC(=O)[C@@H]2CCCN2C(=O)[C@@H](Cc2ccccc2)NC(=O)[C@H](C)NC(=O)[C@H](CCCNC(=N)N)NC1=O [XQ18, Cyclo (AfPARAfPVR)] (cyclo(ARA[dF]PVRA[dF]P)) | 93.9479% and 95.218% | 94.3% | 5% |
| CC(C)[C@@H]1NC(=O)[C@H](C)NC(=O)[C@@H](Cc2ccccc2)NC(=O)[C@H](C)NC(=O)[C@H](CCCNC(=N)N)NC(=O)[C@H](C(C)C)NC(=O)[C@@H]2CCCN2C(=O)[C@@H](Cc2ccccc2)NC(=O)[C@H](C)NC(=O)[C@H](CCCNC(=N)N)NC1=O [XQ20, Cyclo (AfAVRAfPVR)] (cyclo(AVRA[dF]PVRA[dF])) | 88.8732% and 88.6928% | 89.1% | 11% |

More lines, now with the values ahead:

| Remaining activity (%), Fig. 1a source data | remaining activity at 20 µM | inhibition at 20 µM | SMILES |
| --- | --- | --- | --- |
| 76.5914% and 76.7702% | 76.9% | 23% | CC(C)C[C@@H]1NC(=O)[C@H](CCCNC(=N)N)NC(=O)[C@H](C(C)C)NC(=O)[C@@H]2CCCN2C(=O)[C@@H](Cc2ccccc2)NC(=O)[C@H](CC(C)C)NC(=O)[C@H](CCCNC(=N)N)NC(=O)[C@H](C(C)C)NC(=O)[C@@H]2CCCN2C(=O)[C@@H](C)NC1=O [XQ1, Cyclo (LaPVRLfPVR)] (cyclo(L[dA]PVRL[dF]PVR)) |
| 67.2186% and 66.8539% | 67.1% | 33% | CC(C)C[C@@H]1NC(=O)[C@H](CCCNC(=N)N)NC(=O)[C@H](C(C)C)NC(=O)[C@@H]2CCCN2C(=O)[C@@H](Cc2ccccc2)NC(=O)[C@H](CC(C)C)NC(=O)[C@H](CCCNC(=N)N)NC(=O)[C@H](C)NC(=O)[C@@H]2CCCN2C(=O)[C@@H](Cc2ccccc2)NC1=O [XQ3, Cyclo (LfPARLfPVR)] (cyclo(ARL[dF]PVRL[dF]P)) |
| 92.0132% and 91.3002% | 92.3% | 8% | CC(C)C[C@@H]1NC(=O)[C@H](CCCNC(=N)N)NC(=O)[C@H](C(C)C)NC(=O)[C@@H]2CCCN2C(=O)[C@@H](Cc2ccccc2)NC(=O)[C@H](C)NC(=O)[C@H](CCCNC(=N)N)NC(=O)[C@H](C(C)C)NC(=O)[C@@H]2CCCN2C(=O)[C@@H](Cc2ccccc2)NC1=O [XQ5, Cyclo (AfPVRLfPVR)] (cyclo(A[dF]PVRL[dF]PVR)) |
| 101.466% and 100.76% | 101% | 0% | CC(C)C[C@@H]1NC(=O)[C@H](CCCNC(=N)N)NC(=O)[C@H](C(C)C)NC(=O)[C@@H]2CCCN2C(=O)[C@@H](C)NC(=O)[C@H](CC(C)C)NC(=O)[C@H](CCCNC(=N)N)NC(=O)[C@H](C(C)C)NC(=O)[C@@H]2CCCN2C(=O)[C@@H](C)NC1=O [XQ7, Cyclo (LaPVRLaPVR)] (cyclo(L[dA]PVRL[dA]PVR)) |
| 103.793% and 104.243% | 103% | 0% | CC(C)[C@@H]1NC(=O)[C@@H]2CCCN2C(=O)[C@@H](Cc2ccccc2)NC(=O)[C@H](C)NC(=O)[C@H](CCCNC(=N)N)NC(=O)[C@H](C(C)C)NC(=O)[C@@H]2CCCN2C(=O)[C@@H](Cc2ccccc2)NC(=O)[C@H](C)NC(=O)[C@H](CCCNC(=N)N)NC1=O [XQ10, Cyclo (AfPVRAfPVR)] (cyclo(A[dF]PVRA[dF]PVR)) |
| 92.7452% and 92.4625% | 93.4% | 7% | CC(C)C[C@@H]1NC(=O)[C@H](CCCNC(=N)N)NC(=O)[C@H](C)NC(=O)[C@@H]2CCCN2C(=O)[C@@H](Cc2ccccc2)NC(=O)[C@H](C)NC(=O)[C@H](CCCNC(=N)N)NC(=O)[C@H](C(C)C)NC(=O)[C@@H]2CCCN2C(=O)[C@@H](Cc2ccccc2)NC1=O [XQ13, Cyclo (AfPARLfPVR)] (cyclo(ARL[dF]PVRA[dF]P)) |
| 96.1851% and 95.3459% | 96% | 4% | CC(C)C[C@@H]1NC(=O)[C@H](CCCNC(=N)N)NC(=O)[C@H](C(C)C)NC(=O)[C@@H]2CCCN2C(=O)[C@@H](C)NC(=O)[C@H](C)NC(=O)[C@H](CCCNC(=N)N)NC(=O)[C@H](C(C)C)NC(=O)[C@@H]2CCCN2C(=O)[C@@H](Cc2ccccc2)NC1=O [XQ14, Cyclo (AaPVRLfPVR)] (cyclo(A[dA]PVRL[dF]PVR)) |
| 110.709% and 110.469% | 110% | 0% | CC(C)C[C@@H]1NC(=O)[C@H](CCCNC(=N)N)NC(=O)[C@H](C(C)C)NC(=O)[C@@H]2CCCN2C(=O)[C@@H](Cc2ccccc2)NC(=O)[C@H](C)NC(=O)[C@H](CCCNC(=N)N)NC(=O)[C@H](C)NC(=O)[C@@H]2CCCN2C(=O)[C@@H](Cc2ccccc2)NC1=O [XQ15, Cyclo (AfPVRLfPAR)] (cyclo(ARA[dF]PVRL[dF]P)) |
| 66.7673% and 68.063% | 67.2% | 32% | CC(C)C[C@@H]1NC(=O)[C@H](CCCNC(=N)N)NC(=O)[C@H](C(C)C)NC(=O)[C@@H]2CCCN2C(=O)[C@@H](C)NC(=O)[C@H](C)NC(=O)[C@H](CCCNC(=N)N)NC(=O)[C@H](C(C)C)NC(=O)[C@@H]2CCCN2C(=O)[C@@H](C)NC1=O [XQ17, Cyclo (AaPVRLaPVR)] (cyclo(A[dA]PVRL[dA]PVR)) |
